tested on: K1 strain of P. falciparum; assay: Antiplasmodial [3H]-hypoxanthine incorporation assay; type: cell-based, Plasmodium falciparum; conditions: K1 strain (resistant to chloroquine and pyrimethamine); mean of two independent measurements; read-out: IC50 P. falciparum (Pfc)
Method: Plasmodium falciparum. Antiplasmodial activity was determined using the K1 strain of P. falciparum (resistant to chloroquine and pyrimethamine). A modification of the [3H]-hypoxanthine incorporation assay was used. Briefly, infected human red blood cells (final parasitaemia and haematocrit were 0.3% and 1.25%, respectively) in RPMI 1640 medium with 5% Albumax were exposed to serial drug dilutions in microtiter plates. After 48 hours of incubation at 37°C in a reduced oxygen atmosphere, 0.5 mCi 3H-hypoxanthine was added to each well. Cultures were incubated for a further 24 h before they were harvested onto glass-fiber filters and washed with distilled water. The radioactivity was counted using a BetaplateTM liquid scintillation counter (Wallac, Zurich, Switzerland). […] From the sigmoidal inhibition curves IC50 values were calculated. Assays were run in duplicate and repeated once.

| SMILES | IC50 [µM] |
| --- | --- |
| C=C1C(=O)OC2C1CCC1(C)C(O)CCC(=C)C21 (stereo not drawn) [Compound 32] | 13.6 |

same assay, conditions: Plasmodium falciparum, K1, K1 strain (resistant to chloroquine and pyrimethamine); mean of two independent measurements; read-out: IC50 P. falciparum (Pfc)

| SMILES | IC50 [µM] |
| --- | --- |
| C=C1C(=O)OC2CC(C)C3(C=CC(C)=O)OC3CC12 (stereo not drawn) [Compound 19, 8-epixanthatin-1,5-epoxide] | 6.51 |
| C=C1C(=O)OC2CC(C)C(C=CC(C)=O)=CCC12 (stereo not drawn) [Compound 18] | 7.83 |
| C=C1CC(O)CC2(C)CC3OC(=O)C(C)C3CC12 (stereo not drawn) [Compound 28] | > 20 |
| C=C1C(=O)OC2CC(C)C3=CC(=O)OC3CC12 (stereo not drawn) [Compound 24] | > 20 |
| CC1CC2OC(=O)C34CC5(C)C=CC13C(CC24)O5 (stereo not drawn) [Compound 23] | > 20 |

tested on: Trypanosoma brucei rhodesiense STIB 900; assay: In vitro activity against T. brucei rhodesiense bloodstream forms (Alamar blue); type: cell-based; conditions: Trypanosoma brucei, 72 h, bloodstream forms STIB 900, 72 h; mean of two independent measurements; read-out: IC50 T. brucei rhodes. (Tbr)
Method: (§1) Trypanosoma brucei rhodesiense and cytotoxicity against L6 cells. Minimum Essential Medium with Earle’s salts (50 µL) supplemented with 0.2 mM 2-mercapto-ethanol, 1 mM Na-pyruvate and 15% heat-inactivated horse serum was added to each well of a 96-well microtiter plate. […] Then 10^4 bloodstream forms of Trypanosoma brucei rhodesiense STIB 900 in 50 µL of medium were added to each well and the plate incubated at 37°C under a 5% CO2 atmosphere for 72 hours. […] The plate was then read in a Spectramax Gemini XS microplate fluorometer (Molecular Devices Corporation, Sunnyvale, CA, USA) using an excitation wavelength of 536 nm and emission wavelength of 588 nm. Fluorescence development was measured and expressed as percentage of the control. Data were transferred into the graphic programme Softmax Pro (Molecular Devices) which calculated IC50 values. Cytotoxicity was assessed using a similar protocol and rat skeletal myoblasts (L6 cells). […] All following steps were according to the T. b. rhodesiense protocol.

| SMILES | IC50 [µM] |
| --- | --- |
| C=C1C(=O)OC2CC(C)C3(C=CC(C)=O)OC3CC12 (stereo not drawn) [Compound 19, 8-epixanthatin-1,5-epoxide] | 0.33 |
| C=C1C(=O)OC2CC(C)C(C=CC(C)=O)=CCC12 (stereo not drawn) [Compound 18] | 2.92 |
| C=C1CC(O)CC2(C)CC3OC(=O)C(C)C3CC12 (stereo not drawn) [Compound 28] | 341 |
| C=C1C(=O)OC2CC(C)C3=CC(=O)OC3CC12 (stereo not drawn) [Compound 24] | 8.21 |
| CC1CC2OC(=O)C34CC5(C)C=CC13C(CC24)O5 (stereo not drawn) [Compound 23] | 162 |

same assay, conditions: bloodstream forms STIB 900, 72 h; mean of two independent measurements; read-out: IC50 T. brucei rhodes. (Tbr)

| SMILES | IC50 [µM] |
| --- | --- |
| C=C1C(=O)OC2C1CCC1(C)C(O)CCC(=C)C21 (stereo not drawn) [Compound 32] | 1.11 |

same assay, conditions: ratio of cytotoxic IC50 (L6) over IC50 against Tbr

| SMILES | selectivity index (SI) with respect to Tbr |
| --- | --- |
| C=C1C(=O)OC2CC(C)C3(C=CC(C)=O)OC3CC12 (stereo not drawn) [Compound 19, 8-epixanthatin-1,5-epoxide] | 67 |
| C=C1C(=O)OC2CC(C)C3=CC(=O)OC3CC12 (stereo not drawn) [Compound 24] | 52 |

tested on: Leishmania donovani amastigotes (strain MHOM/ET/67/L82); assay: L. donovani axenic amastigote assay (resazurin); type: cell-based; conditions: Leishmania donovani, 72 h, pH 5.4, axenic amastigotes, pH 5.4, 72 h; mean of two independent measurements; read-out: IC50 L. donovani (Ldon)
Method: Leishmania donovani (axenic amastigote assay). […] Serial drug dilutions in duplicates were prepared covering a range from 30 to 0.041 µg/mL. […] The compounds used as positive controls in the various bioassays (see Table 1) were of commercial origin, with the exception of melarsoprol, which was a gift from WHO. Their purity (generally > 95%) was specified by the manufacturers.

| SMILES | IC50 [µM] |
| --- | --- |
| C=C1C(=O)OC2CC(C)C3(C=CC(C)=O)OC3CC12 (stereo not drawn) [Compound 19, 8-epixanthatin-1,5-epoxide] | 0.599 |
| C=C1C(=O)OC2CC(C)C(C=CC(C)=O)=CCC12 (stereo not drawn) [Compound 18] | 17.6 |
| C=C1CC(O)CC2(C)CC3OC(=O)C(C)C3CC12 (stereo not drawn) [Compound 28] | > 120 |
| C=C1C(=O)OC2CC(C)C3=CC(=O)OC3CC12 (stereo not drawn) [Compound 24] | 27.1 |
| CC1CC2OC(=O)C34CC5(C)C=CC13C(CC24)O5 (stereo not drawn) [Compound 23] | 15.4 |

same assay, conditions: axenic amastigotes, pH 5.4, 72 h; mean of two independent measurements; read-out: IC50 L. donovani (Ldon)

| SMILES | IC50 [µM] |
| --- | --- |
| C=C1C(=O)OC2C1CCC1(C)C(O)CCC(=C)C21 (stereo not drawn) [Compound 32] | 7.34 |

same assay, conditions: ratio of cytotoxic IC50 (L6) over IC50 against Ldon

| SMILES | selectivity index (SI) with respect to Ldon |
| --- | --- |
| C=C1C(=O)OC2CC(C)C3(C=CC(C)=O)OC3CC12 (stereo not drawn) [Compound 19, 8-epixanthatin-1,5-epoxide] | 36 |
| C=C1C(=O)OC2CC(C)C3=CC(=O)OC3CC12 (stereo not drawn) [Compound 24] | 15 |

tested on: T. cruzi Tulahuen strain C2C4; assay: In vitro activity against T. cruzi in L-6 host cells (beta-galactosidase/CPRG); type: cell-based, Trypanosoma cruzi; conditions: Trypanosoma cruzi, L6; Tulahuen C2C4 in L-6 cells, 96 h; mean of two independent measurements; read-out: IC50 T. cruzi (Tcr)
Method: Trypanosoma cruzi. Rat skeletal myoblasts (L-6 cells) were seeded in 96-well microtiter plates at 2,000 cells/well in 100 µL RPMI 1640 medium with 10% FBS (fetal bovine serum) and 2 mM L-glutamine. After 24 hours the medium was removed and replaced by 100 µL per well containing 5,000 trypomastigote forms of T. cruzi Tulahuen strain C2C4 containing the β-galactosidase (Lac Z) gene. Fortyeight hours later the medium was removed from the wells and replaced by […] fresh medium with or without a serial drug dilution. Seven 3-fold dilutions were used covering a range from […]. Each drug was tested in duplicate. After 96 hours of incubation the plates were inspected under an inverted microscope to assure growth of the controls and sterility. Then the substrate CPRG/ Nonidet (50 µL) was added to all wells. A colour reaction developed within 2-6 hours and could be read photometrically at 540 nm.

| SMILES | IC50 [µM] |
| --- | --- |
| C=C1C(=O)OC2CC(C)C(C=CC(C)=O)=CCC12 (stereo not drawn) [Compound 18] | 26.2 |

same assay, conditions: Trypanosoma cruzi, TULAHUEN, L6, 96 h, Tulahuen C2C4 in L-6 cells, 96 h; mean of two independent measurements; read-out: IC50 T. cruzi (Tcr)

| SMILES | IC50 [µM] |
| --- | --- |
| C=C1C(=O)OC2CC(C)C3(C=CC(C)=O)OC3CC12 (stereo not drawn) [Compound 19, 8-epixanthatin-1,5-epoxide] | 11.3 |
| C=C1CC(O)CC2(C)CC3OC(=O)C(C)C3CC12 (stereo not drawn) [Compound 28] | > 120 |
| C=C1C(=O)OC2CC(C)C3=CC(=O)OC3CC12 (stereo not drawn) [Compound 24] | > 120 |
| CC1CC2OC(=O)C34CC5(C)C=CC13C(CC24)O5 (stereo not drawn) [Compound 23] | > 120 |

same assay, conditions: Tulahuen C2C4 in L-6 cells, 96 h; mean of two independent measurements; read-out: IC50 T. cruzi (Tcr)

| SMILES | IC50 [µM] |
| --- | --- |
| C=C1C(=O)OC2C1CCC1(C)C(O)CCC(=C)C21 (stereo not drawn) [Compound 32] | 26.2 |

tested on: not listed separately; assay: in vitro; conditions: rat, IC50 Cytotoxicity (L6), L6 rat skeletal myoblasts, 72 h; mean of two independent measurements
Method: as §1

| SMILES | IC50 [µM] |
| --- | --- |
| CC1CC2OC(=O)C34CC5(C)C=CC13C(CC24)O5 (stereo not drawn) [Compound 23] | > 365 |

same assay, conditions: rat, L6 cells (rat skeletal myoblasts)

| SMILES | IC50 at 72 h [µM] |
| --- | --- |
| C=C1C(=O)OC2CC(C)C3(C=CC(C)=O)OC3CC12 (stereo not drawn) [Compound 19, 8-epixanthatin-1,5-epoxide] | 22.1 |
| C=C1C(=O)OC2CC(C)C(C=CC(C)=O)=CCC12 (stereo not drawn) [Compound 18] | 30.2 |
| C=C1CC(O)CC2(C)CC3OC(=O)C(C)C3CC12 (stereo not drawn) [Compound 28] | 187 |
| C=C1C(=O)OC2CC(C)C3=CC(=O)OC3CC12 (stereo not drawn) [Compound 24] | 427 |

tested on: rat skeletal myoblasts (L6 cells); assay: in vitro; conditions: not given
Method: as §1

| SMILES | antiparasitic activity compared with cytotoxicity (in words) |
| --- | --- |
| C=C1C(=O)OC2CC(C)C(C=CC(C)=O)=CCC12 (stereo not drawn) [Compound 18] | significantly higher levels of antiparasitic activity, especially against Tbr, than cytotoxicity |

same assay, conditions: protozoa, especially Tbr, versus L6 mammalian cells

| SMILES | antiparasitic activity compared with cytotoxicity (in words) |
| --- | --- |
| C=C1C(=O)OC2CC(C)C3(C=CC(C)=O)OC3CC12 (stereo not drawn) [Compound 19, 8-epixanthatin-1,5-epoxide] | significantly higher levels of antiparasitic activity, especially against Tbr, than cytotoxicity |

same assay, conditions: read-out: IC50 Cytotoxicity (L6); L6 rat skeletal myoblasts, 72 h; mean of two independent measurements

| SMILES | IC50 [µM] |
| --- | --- |
| C=C1C(=O)OC2C1CCC1(C)C(O)CCC(=C)C21 (stereo not drawn) [Compound 32] | 25.6 |
